In general, IC50 refers to the point on the concentration scale where inhibition reaches its midpoint.

Consider 24 molecules from patent US9138436B2, “Inhibitors of Bruton's tyrosine kinase” (PHARMACYCLICS LLC, priority 2011, dated 2015).

Molecules are shown by their SMILES.

The test deals with Btk (Homo sapiens, UniProt Q06187). Description: Btk in vitro inhibitory activity, acellular kinase assay (TR-FRET). It is filed as biochemical. As for the experimental part:
Btk kinase activity is determined using a time-resolved fluorescence resonance energy transfer (TR-FRET) methodology. Measurements are performed in a reaction volume of 50 μL using 96-well assay plates. Kinase enzyme, inhibitor, ATP (at the Km for the kinase), and 1 μM peptide substrate (Biotin-AVLESEEELYSSARQ-NH2) are incubated in a reaction buffer composed of 20 mM Tris, 50 mM NaCl, MgCl2 (5-25 mM depending on the kinase), MnCl2 (0-10 mM), 1 mM DTT, 0.1 mM EDTA, 0.01% bovine serum albumin, 0.005% Tween-20, and 10% DMSO at pH 7.4 for one hour. The reaction is quenched by the addition of 1.2 equivalents of EDTA (relative to divalent cation) in 25 μL of 1× Lance buffer (Perkin-Elmer). Streptavidin-APC (Perkin-Elmer) and Eu-labeled p-Tyr100 antibody (Perkin-Elmer) in 1× Lance buffer are added in a 25 μL volume to give final concentrations of 100 nM and 2.5 nM, respectively, and the mixture is allowed to incubate for one hour. The TR-FRET signal is measured on a multimode plate reader with an excitation wavelength (λEx) of 330 nm and detection wavelengths (λEm) of 615 and 665 nm. Activity is determined by the ratio of the fluorescence at 665 nm to that at 615 nm. For each compound, enzyme activity is measured at various concentrations of compound. Negative control reactions are performed in the absence of inhibitor in replicates of six, and two no-enzyme controls were used to determine baseline fluorescence levels. Inhibition constants, Ki(app), are obtained using the program BatchKi (Kuzmic et al. (2000), Anal. Biochem. 286:45-50). IC50s are obtained according to the equation: IC50={Ki(app)/(1+[ATP]/Km^ATP)}+[E]total/2;
For all kinases, [ATP]=Km^ATP, [Btk]total=0.5 nM and [Lck]total=6 nM.
On the technique in general: TR-FRET usually uses a lanthanide donor and a delayed reading to cut background.

Sequence of Btk (Q06187 whole entry): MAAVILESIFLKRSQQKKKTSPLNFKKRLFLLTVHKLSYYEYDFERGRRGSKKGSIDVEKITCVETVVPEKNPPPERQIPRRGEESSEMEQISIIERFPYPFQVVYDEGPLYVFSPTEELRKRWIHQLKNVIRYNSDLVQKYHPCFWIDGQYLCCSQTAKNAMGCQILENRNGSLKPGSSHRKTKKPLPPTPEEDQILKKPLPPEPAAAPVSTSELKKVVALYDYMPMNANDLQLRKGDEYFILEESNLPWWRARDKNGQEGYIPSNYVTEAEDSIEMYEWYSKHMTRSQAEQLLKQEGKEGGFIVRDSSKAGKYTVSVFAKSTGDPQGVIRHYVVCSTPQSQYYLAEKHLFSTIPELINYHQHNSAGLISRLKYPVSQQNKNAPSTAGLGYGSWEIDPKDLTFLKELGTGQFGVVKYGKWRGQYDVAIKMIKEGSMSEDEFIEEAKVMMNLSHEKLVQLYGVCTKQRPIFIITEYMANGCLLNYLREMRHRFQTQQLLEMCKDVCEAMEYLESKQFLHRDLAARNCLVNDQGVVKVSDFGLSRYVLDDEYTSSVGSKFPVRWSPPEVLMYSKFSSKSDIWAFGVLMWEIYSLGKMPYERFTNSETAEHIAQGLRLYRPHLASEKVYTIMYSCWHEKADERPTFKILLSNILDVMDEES

The molecule `CN(C/C=C/C(=O)N1CC[C@@H](n2nc(-c3ccc(Oc4ccccc4)cc3)c3c(N)ncnc32)C1)C1CCC1` [Example 2aa, (R,E)-1-(3-(4-amino-3-(4-phenoxyphenyl)-1H-pyrazolo[3,4-d]pyrimidin-1-yl)pyrrolidin-1-yl)-4-(cyclobutyl(methyl)amino)but-2-en-1-one] came in with an IC50 below 100 nM.
In turn, `CN(C(=O)/C=C/CN(C)C1CC1)c1cccc(-n2cc(-c3ccc(Oc4ccccc4)cc3)c3c(N)ncnc32)c1` [Example 8a] yielded a half-maximal inhibitory concentration (IC50) below 100 nM.
Molecule `CC(C)N(C/C=C/C(=O)N1CCC[C@@H](n2nc(-c3ccc(Oc4ccccc4)cc3)c3c(N)ncnc32)C1)C1CC1` [Example 2t, (R,E)-1-(3-(4-amino-3-(4-phenoxyphenyl)-1H-pyrazolo[3,4-d]pyrimidin-1-yl)piperidin-1-yl)-4-(cyclopropyl(isopropyl)amino)but-2-en-1-one] showed an IC50 below 100 nM.
For `COCCN(C/C=C/C(=O)N1CC[C@@H](n2nc(-c3ccc(Oc4ccccc4)cc3)c3c(N)ncnc32)C1)C1CC1` [Example 2p, (R,E)-1-(3-(4-amino-3-(4-phenoxyphenyl)-1H-pyrazolo[3,4-d]pyrimidin-1-yl)pyrrolidin-1-yl)-4-(cyclopropyl(2-methoxyethyl)amino)but-2-en-1-one] the value was below 100 nM; for `Nc1ncnc2c1c(-c1ccc(Oc3ccccc3)cc1)nn2[C@@H]1CCCN(C(=O)/C=C/CN(C2CC2)C2CC2)C1` [Example 2r, (R,E)-1-(3-(4-amino-3-(4-phenoxyphenyl)-1H-pyrazolo[3,4-d]pyrimidin-1-yl)piperidin-1-yl)-4-(dicyclopropylamino)but-2-en-1-one], below 100 nM; for `Nc1ncnc2c1c(-c1ccc(Oc3ccccc3)cc1)nn2[C@@H]1CCN(C(=O)/C=C/CN(C2CC2)C2CC2)C1` [Example 2a, (R,E)-1-(3-(4-amino-3-(4-phenoxyphenyl)-1H-pyrazolo[3,4-d]pyrimidin-1-yl)pyrrolidin-1-yl)-4-(dicyclopropylamino)but-2-en-1-one], below 100 nM.
Regarding `CN(C/C=C/C(=O)N1CCC[C@@H](n2nc(-c3ccc(Oc4ccccc4)cc3)c3c(N)ncnc32)C1)[C@@H]1CCOC1` [Example 2h, (E)-1-((R)-3-(4-amino-3-(4-phenoxyphenyl)-1H-pyrazolo[3,4-d]pyrimidin-1-yl)piperidin-1-yl)-4-(methyl((R)-tetrahydrofuran-3-yl)amino)but-2-en-1-one], the IC50 was below 100 nM.
As to `CN(C/C=C/C(=O)N1CC[C@@H](n2nc(-c3ccc(Oc4ccccc4)cc3)c3c(N)ncnc32)C1)C1COC1` [Example 2f, (R,E)-1-(3-(4-amino-3-(4-phenoxyphenyl)-1H-pyrazolo[3,4-d]pyrimidin-1-yl)pyrrolidin-1-yl)-4-(methyl(oxetan-3-yl)amino)but-2-en-1-one], the IC50 is below 100 nM.
`CN(C/C=C/C(=O)N1CC[C@@H](n2nc(-c3ccc(Oc4cccc(F)c4)cc3)c3c(N)ncnc32)C1)C1CC1` [Example 4c, (R,E)-1-(3-(4-amino-3-(4-(3-fluorophenoxy)phenyl)-1H-pyrazolo[3,4-d]pyrimidin-1-yl)pyrrolidin-1-yl)-4-(cyclopropyl(methyl)amino)but-2-en-1-one] registered an IC50 below 100 nM.
For `Nc1ncnc2c1c(-c1ccc(Oc3ccccc3)cc1)nn2[C@@H]1CCCN(C(=O)/C=C/CNC2CC2)C1` [Example 2af, (R,E)-1-(3-(4-amino-3-(4-phenoxyphenyl)-1H-pyrazolo[3,4-d]pyrimidin-1-yl)piperidin-1-yl)-4-(cyclopropylamino)but-2-en-1-one] the value was below 100 nM; for `Nc1ncnc2c1c(-c1ccc(Oc3ccccc3)cc1)nn2[C@@H]1CCN(C(=O)/C=C/CN[C@@H]2CCOC2)C1` [Example 2c, (E)-1-((R)-3-(4-amino-3-(4-phenoxyphenyl)-1H-pyrazolo[3,4-d]pyrimidin-1-yl)pyrrolidin-1-yl)-4-((R)-tetrahydrofuran-3-ylamino)but-2-en-1-one], below 100 nM.
In turn, `CN1CCC(NC/C=C/C(=O)N2CC[C@@H](n3nc(-c4ccc(Oc5ccccc5)cc4)c4c(N)ncnc43)C2)CC1` [Example 2ad, (R,E)-1-(3-(4-amino-3-(4-phenoxyphenyl)-1H-pyrazolo[3,4-d]pyrimidin-1-yl)pyrrolidin-1-yl)-4-(1-methylpiperidin-4-ylamino)but-2-en-1-one] came in with an IC50 below 100 nM.
`Nc1ncnc2c1c(-c1ccc(Oc3ccccc3)cc1)nn2[C@@H]1CCN(C(=O)/C=C/CNC2CCC2)C1` [Example 2ab, (R,E)-1-(3-(4-amino-3-(4-phenoxyphenyl)-1H-pyrazolo[3,4-d]pyrimidin-1-yl)pyrrolidin-1-yl)-4-(cyclobutylamino)but-2-en-1-one] yielded an IC50 below 100 nM.
Take `CN(C/C=C/C(=O)Nc1cccc(-n2nc(-c3ccc(Oc4ccccc4)cc3)c3c(N)ncnc32)c1)C1CC1` [Example 7f, (E)-N-(3-(4-amino-3-(4-phenoxyphenyl)-1H-pyrazolo[3,4-d]pyrimidin-1-yl)phenyl)-4-(cyclopropyl(methyl)amino)but-2-enamide]: the IC50 is below 100 nM.
In the case of `Nc1ncnc2c1c(-c1ccc(Oc3ccccc3)cc1)nn2[C@@H]1CCCN(C(=O)/C=C/CNC2COC2)C1` [Example 2n, (R,E)-1-(3-(4-amino-3-(4-phenoxyphenyl)-1H-pyrazolo[3,4-d]pyrimidin-1-yl)piperidin-1-yl)-4-(oxetan-3-ylamino)but-2-en-1-one], the half-inhibitory concentration (IC50) was below 100 nM.
Molecule `CN(C/C=C/C(=O)N1CC[C@@H](n2cc(-c3ccc(Oc4ccccc4)cc3)c3c(N)ncnc32)C1)C1CC1` [Example 6b, (R,E)-1-(3-(4-amino-5-(4-phenoxyphenyl)-7H-pyrrolo[2,3-d]pyrimidin-7-yl)pyrrolidin-1-yl)-4-(cyclopropyl(methyl)amino)but-2-en-1-one] registered an IC50 below 100 nM.
The molecule `CN1CCC(NC/C=C/C(=O)N2CCC[C@@H](n3nc(-c4ccc(Oc5ccccc5)cc4)c4c(N)ncnc43)C2)CC1` [Example 2ao, (R,E)-1-(3-(4-amino-3-(4-phenoxyphenyl)-1H-pyrazolo[3,4-d]pyrimidin-1-yl)piperidin-1-yl)-4-(1-methylpiperidin-4-ylamino)but-2-en-1-one] registered an IC50 below 100 nM.
In turn, `CN(C/C=C/C(=O)N1CCC(n2nc(-c3ccc(Oc4ccccc4)cc3)c3c(N)ncnc32)CC1)C1CC1` [Example 5b, (E)-1-(4-(4-amino-3-(4-phenoxyphenyl)-1H-pyrazolo[3,4-d]pyrimidin-1-yl)piperidin-1-yl)-4-(cyclopropyl(methyl)amino)but-2-en-1-one] gave an IC50 below 100 nM.
`Nc1ncnc2c1c(-c1ccc(Oc3ccccc3)cc1)nn2[C@@H]1CCCN(C(=O)/C=C/CNC2CCC2)C1` [Example 2am, (R,E)-1-(3-(4-amino-3-(4-phenoxyphenyl)-1H-pyrazolo[3,4-d]pyrimidin-1-yl)piperidin-1-yl)-4-(cyclobutylamino)but-2-en-1-one] returned an IC50 below 100 nM.
The molecule `CCN(C/C=C/C(=O)N1CC[C@@H](n2nc(-c3ccc(Oc4ccccc4)cc3)c3c(N)ncnc32)C1)C1CC1` [Example 2v, (R,E)-1-(3-(4-amino-3-(4-phenoxyphenyl)-1H-pyrazolo[3,4-d]pyrimidin-1-yl)pyrrolidin-1-yl)-4-(cyclopropyl(ethyl)amino)but-2-en-1-one] registered an IC50 below 100 nM.
Take `CN1CCC(N(C)C/C=C/C(=O)N2CC[C@@H](n3nc(-c4ccc(Oc5ccccc5)cc4)c4c(N)ncnc43)C2)CC1` [Example 2ac, (R,E)-1-(3-(4-amino-3-(4-phenoxyphenyl)-1H-pyrazolo[3,4-d]pyrimidin-1-yl)pyrrolidin-1-yl)-4-(methyl(1-methylpiperidin-4-yl)amino)but-2-en-1-one]: the IC50 was below 100 nM.
As for `CN(C/C=C/C(=O)N1CC[C@@H](n2nc(-c3ccc(Oc4cccc(F)c4)cc3)c3c(N)ncnc32)C1)C1CCC1` [Example 4b, (R,E)-1-(3-(4-amino-3-(4-(3-fluorophenoxy)phenyl)-1H-pyrazolo[3,4-d]pyrimidin-1-yl)pyrrolidin-1-yl)-4-(cyclobutyl(methyl)amino)but-2-en-1-one], the 50% inhibitory concentration (IC50) was below 100 nM.
`Nc1ncnc2c1c(-c1ccc(Oc3ccccc3)cc1)nn2[C@@H]1CCN(C(=O)/C=C/CNC2COC2)C1` [Example 2g, (R,E)-1-(3-(4-amino-3-(4-phenoxyphenyl)-1H-pyrazolo[3,4-d]pyrimidin-1-yl)pyrrolidin-1-yl)-4-(oxetan-3-ylamino)but-2-en-1-one] registered an IC50 below 100 nM.
Molecule `Nc1ncnc2c1c(-c1ccc(Oc3ccccc3)cc1)nn2[C@@H]1CCCN(C(=O)/C=C/CNC2CCOCC2)C1` [Example 1f, (R,E)-1-(3-(4-amino-3-(4-phenoxyphenyl)-1H-pyrazolo[3,4-d]pyrimidin-1-yl)piperidin-1-yl)-4-(tetrahydro-2H-pyran-4-ylamino)but-2-en-1-one] showed a half-inhibitory concentration (IC50) below 100 nM.
